Tested on: RS11846 B cell chemotaxis to 7a,25-OHC, calcein fluorescence
Assay: EBI2 antagonists in B cell chemotaxis, dose response, 7a,25-OHC, calcein fluorescence (AID 743410)

Compound: O=C(/C=C/c1ccc(Br)cc1)N1CCN(Cc2ccc(Cl)cc2)CC1
- IC50: 6.24 nM

Reference: PubChem BioAssay AID743410 (Sanford-Burnham Center for Chemical Genomics, 2014)
